Experiments:
[1] = tested on: human colon cancer cell SW620; experiment: MTT assay, growth of SW620 cells, compounds combined with CPT-11; assay type: cell-based; conditions: for IC50: Homo sapiens, SW-620, 120 h, 205 nM CPT-11, 5 days, MTT
Protocol: (§1) SW620 cells were digested by trypsinase, centrifuged at 800 rpm for 5 minutes, the supernatant was discarded, resuspended with fresh medium (RPMI 1640 medium+10% FBS) and counted. The cells were seeded into 96-well cell culture plate with appropriate cell density and incubated overnight in a 37° C. 5% CO2 incubator. The stock solutions of the tested compound and the reference compound AZD0156 were serially diluted to 8 concentrations by DMSO at the ratios of 1:3 and 1:10, respectively, and the last concentration was negative control of DMSO (0 μM, the final concentration of DMSO was 1%). 5 μL of each concentration was added to 120 μL of medium (25 times diluted) and mixed by shaking. The overnight cells were taken and the culture medium was removed, 195 μL of fresh medium containing 205 nM CPT-11 was added to each well, and 5 μL of diluted medium containing the corresponding concentration of the tested sample was added respectively, and the culture plate was then placed in the 5% CO2 cell culture incubator at 37° C. for 5 days. After removing the original solution, 100 μL of fresh serum-free DMEM medium containing MTT (0.5 mg/mL) was added to each well, the culture was continued. After 4 hours, the original solution was removed, 100 μL of DMSO was added into each well, the 96-well plates were shaken away from light for 10 minutes and placed in a multi-function reader to read the absorbance at the wavelength of 552/630/690 nm. GraphPad Prism 6.0 was used to analyze the data. The inhibitory activity of compounds on cell proliferation was plotted based on cell viability and compound concentration. The IC50 value was fitted by a sigmoidal dose response curve equation Y=100/(1+10^(Log C−Log IC50)), where C was the concentration of compound.

[2] = tested on: human breast cancer cell MDA-MB-468; experiment: MTT assay, growth of MDA-MB-468 cells; assay type: cell-based; conditions: for IC50: Homo sapiens, MDA-MB-468, 168 h, single agent, 7 days, MTT
Protocol: as §1, with “MDA-MB-468 cells” for “SW620 cells”, “1:10, respectively:” for “1:10, respectively, and”, “medium (PRMI 1640+5% FBS)” for “medium containing 205 nM CPT-11”, “for 7 days (On the fourth day, the medium containing drugs was removed and fresh medium containing drugs was added for continuous cultivation).” for “for 5 days.”

ATM enzyme (human) = ATM enzyme (human) (Homo sapiens, UniProt Q13315); experiment: ATM kinase assay (HTRF, phosphorylation of GST-cMyc-p53); assay type: biochemical; conditions: 0.5 h; detected concentration 1 μm
Chain of ATM enzyme (human) (Q13315 whole entry): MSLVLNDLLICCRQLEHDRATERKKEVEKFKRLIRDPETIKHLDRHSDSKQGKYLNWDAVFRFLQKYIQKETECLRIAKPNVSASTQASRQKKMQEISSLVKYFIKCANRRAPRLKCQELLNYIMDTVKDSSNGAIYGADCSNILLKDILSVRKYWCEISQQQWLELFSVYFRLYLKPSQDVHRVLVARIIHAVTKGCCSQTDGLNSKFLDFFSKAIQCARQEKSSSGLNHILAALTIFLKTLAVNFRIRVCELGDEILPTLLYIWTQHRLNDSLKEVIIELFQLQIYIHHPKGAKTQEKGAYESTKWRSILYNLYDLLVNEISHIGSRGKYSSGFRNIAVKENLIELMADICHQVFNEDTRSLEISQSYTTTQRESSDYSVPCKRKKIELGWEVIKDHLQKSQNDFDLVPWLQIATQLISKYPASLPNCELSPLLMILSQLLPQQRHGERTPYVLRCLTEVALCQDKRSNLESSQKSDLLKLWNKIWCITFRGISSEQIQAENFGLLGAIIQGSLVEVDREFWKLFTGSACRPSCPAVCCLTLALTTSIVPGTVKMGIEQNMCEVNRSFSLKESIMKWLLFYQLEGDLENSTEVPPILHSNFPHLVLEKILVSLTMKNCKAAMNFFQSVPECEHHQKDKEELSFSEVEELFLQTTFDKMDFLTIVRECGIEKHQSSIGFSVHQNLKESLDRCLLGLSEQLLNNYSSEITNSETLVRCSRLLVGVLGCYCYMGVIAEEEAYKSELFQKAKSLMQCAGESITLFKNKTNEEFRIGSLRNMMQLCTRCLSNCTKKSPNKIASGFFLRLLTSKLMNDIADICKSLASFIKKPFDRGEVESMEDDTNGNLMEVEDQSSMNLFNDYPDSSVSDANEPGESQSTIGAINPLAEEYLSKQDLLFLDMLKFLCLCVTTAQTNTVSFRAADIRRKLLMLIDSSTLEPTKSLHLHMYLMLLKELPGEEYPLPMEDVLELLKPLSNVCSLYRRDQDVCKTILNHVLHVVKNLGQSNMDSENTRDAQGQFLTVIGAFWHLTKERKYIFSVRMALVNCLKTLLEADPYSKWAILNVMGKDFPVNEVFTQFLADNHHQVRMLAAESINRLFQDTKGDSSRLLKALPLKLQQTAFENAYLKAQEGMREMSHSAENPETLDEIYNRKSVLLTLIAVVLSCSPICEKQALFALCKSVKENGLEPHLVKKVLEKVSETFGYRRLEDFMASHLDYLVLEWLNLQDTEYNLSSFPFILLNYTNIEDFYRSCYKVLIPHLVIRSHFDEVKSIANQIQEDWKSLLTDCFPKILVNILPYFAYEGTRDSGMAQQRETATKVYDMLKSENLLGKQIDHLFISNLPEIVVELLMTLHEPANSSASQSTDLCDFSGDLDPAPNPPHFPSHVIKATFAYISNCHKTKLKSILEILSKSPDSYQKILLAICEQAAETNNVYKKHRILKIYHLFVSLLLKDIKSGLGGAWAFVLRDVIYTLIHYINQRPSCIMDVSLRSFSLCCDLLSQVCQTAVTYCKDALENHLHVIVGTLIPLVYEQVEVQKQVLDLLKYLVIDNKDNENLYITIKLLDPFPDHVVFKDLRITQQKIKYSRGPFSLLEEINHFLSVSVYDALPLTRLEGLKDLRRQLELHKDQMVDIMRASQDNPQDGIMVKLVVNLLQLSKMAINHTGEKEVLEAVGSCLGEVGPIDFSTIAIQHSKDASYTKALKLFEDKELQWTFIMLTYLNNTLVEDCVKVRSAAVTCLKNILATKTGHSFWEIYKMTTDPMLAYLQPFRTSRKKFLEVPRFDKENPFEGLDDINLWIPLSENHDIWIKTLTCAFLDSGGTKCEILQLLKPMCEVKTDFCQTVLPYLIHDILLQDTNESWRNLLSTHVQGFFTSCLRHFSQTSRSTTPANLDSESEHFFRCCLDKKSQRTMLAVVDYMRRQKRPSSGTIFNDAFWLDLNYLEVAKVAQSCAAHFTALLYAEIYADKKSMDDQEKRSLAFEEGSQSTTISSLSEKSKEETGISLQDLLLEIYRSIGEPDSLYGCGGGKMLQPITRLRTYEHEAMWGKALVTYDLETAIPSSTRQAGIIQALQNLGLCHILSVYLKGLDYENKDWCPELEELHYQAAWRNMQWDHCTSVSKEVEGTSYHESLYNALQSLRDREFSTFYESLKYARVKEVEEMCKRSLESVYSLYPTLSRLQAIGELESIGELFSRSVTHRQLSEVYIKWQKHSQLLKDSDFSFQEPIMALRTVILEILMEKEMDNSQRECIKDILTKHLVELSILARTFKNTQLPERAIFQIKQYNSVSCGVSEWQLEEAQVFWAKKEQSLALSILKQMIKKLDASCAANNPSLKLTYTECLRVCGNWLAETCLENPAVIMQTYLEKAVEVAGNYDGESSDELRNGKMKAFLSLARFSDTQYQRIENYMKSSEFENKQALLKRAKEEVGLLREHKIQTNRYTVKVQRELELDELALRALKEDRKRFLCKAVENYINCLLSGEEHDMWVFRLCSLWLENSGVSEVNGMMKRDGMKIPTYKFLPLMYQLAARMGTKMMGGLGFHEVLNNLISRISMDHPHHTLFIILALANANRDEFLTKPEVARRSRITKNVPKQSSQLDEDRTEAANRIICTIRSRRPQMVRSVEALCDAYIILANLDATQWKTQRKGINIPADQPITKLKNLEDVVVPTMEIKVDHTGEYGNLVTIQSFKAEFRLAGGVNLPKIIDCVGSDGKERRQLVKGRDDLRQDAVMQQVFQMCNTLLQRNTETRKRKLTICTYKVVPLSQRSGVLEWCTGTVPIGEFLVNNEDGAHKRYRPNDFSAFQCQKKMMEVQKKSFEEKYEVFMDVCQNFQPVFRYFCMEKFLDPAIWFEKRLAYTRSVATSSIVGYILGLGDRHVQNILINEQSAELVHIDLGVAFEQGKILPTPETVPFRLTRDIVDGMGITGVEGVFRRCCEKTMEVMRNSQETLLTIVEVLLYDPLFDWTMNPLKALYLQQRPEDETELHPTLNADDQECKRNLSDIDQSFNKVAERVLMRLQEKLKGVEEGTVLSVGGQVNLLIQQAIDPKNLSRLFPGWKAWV
Protocol: ATM enzyme (human) was added to the reaction solution containing 30 nM GST-cMyc-p53 and 10 μM Mg/ATP, and then 50 times the concentration of the tested compound (or reference compound AZD0156) dissolved in 100% DMSO was added to the final concentration of 10 μM/1 μM/0.1 μM/0.01 μM. The reaction was initiated by the addition of a Mg/ATP mixture and incubation for 30 minutes at room temperature, the reaction was quenched by the addition of a stop solution containing EDTA. Finally, the detection buffer containing the d2-labeled anti-GST monoclonal antibody and the europium-labeled anti-phospho p53 (Ser15) antibody was added. The plate was then read in time resolved fluorescence mode and the homogeneous time resolved fluorescence (HTRF) signal was determined according to the equation: HTRF=10000×(Em665nm/Em620nm). Each compound sample was repeated in duplicate. The negative control contained all components except the ATM enzyme, and the positive control contained all components. All reactions were quenched by adding EDTA.
The compounds were serially diluted to 10 concentrations with 100% DMSO at the ratio of 1:3 and 1:10 (the last concentration was negative control of DMSO), then added to the ATM buffer and diluted to a final concentration of 10, 3, 1, 0.3, 0.1, 0.03, 0.01, 0.003, 0.001 and 0 μM, respectively. ATM kinase inhibition was detected by using the method described above. The curve equation for calculating IC50 value is as follows: […]
wherein, C is the concentration of compound and D is the slope factor. Table 2 summarizes the IC50 values of compounds inhibiting ATM kinase.

CN(C)CCCOc1ccc(-c2ccc3nc4cccc(-n5ccnc5)c4n3c2)cn1 [Example 9, N,N-dimethyl-3-((5-(9-(1H-imidazol-1-yl)benzo[4,5]imidazo[1,2-a]pyridin-2-yl)pyridin-2-yl)oxy) propan-1-amine] was tested, and the IC50 [1] was 9310 nM, the IC50 [2] was 3660 nM and the inhibition at 1 µM (ATM enzyme (human)) was 60%.
With CN(C)CCCOc1ccc(-c2ccc3nc4cccc(CN5CCOCC5)c4n3c2)cn1 [Example 10, N,N-dimethyl-3-((5-(9-(morpholinomethyl)benzo[4,5]imidazo[1,2-a]pyridin-2-yl)pyridin-2-yl)oxy)propan-1-amine] the IC50 [1] was > 10000 nM, the IC50 [2] was > 10000 nM and the inhibition at 1 µM (ATM enzyme (human)) was 77%.
CN(C)CCCOc1ccc(-c2ccc3nc4cccc(OC5CCN(C)CC5)c4n3c2)cn1 [Example 12, N,N-dimethyl-3-((5-(9-((1-methylpiperidin-4-yl)oxy)benzo[4,5]imidazo[1,2-a]pyridin-2-yl)pyridin-2-yl)oxy)propan-1-amine] gave an IC50 [1] of 528 nM, an IC50 [2] of 703 nM and an inhibition at 1 µM (ATM enzyme (human)) of 88%.
In the case of CN(C)CCCOc1ccc(-c2ccc3nc4cccc(NC5CCN(C)CC5)c4n3c2)cn1 [Example 15, N,N-dimethyl-3-((5-(9-(1-methylpiperidin-4-ylamino)benzo[4,5]imidazo[1,2-a]pyridin-2-yl)pyridin-2-yl)oxy)propan-1-amine], the IC50 [1] is reported as 2420 nM, the IC50 [2] is reported as > 10000 nM and the inhibition at 1 µM (ATM enzyme (human)) is reported as 39%.
For CN1CCN(c2ccc(-c3cccc4nc5ccc(N6CCOCC6)cc5n34)cn2)CC1 [Example 16, 1-(6-(4-methylpiperazin-1-yl)pyridin-3-yl)-8-morpholinobenzo[4,5]imidazo[1,2-a]pyridine], the IC50 [1] was > 10000 nM, the IC50 [2] was > 10000 nM and the inhibition at 1 µM (ATM enzyme (human)) was 53%.
Compound C[C@@H]1CN(c2ccc(-c3cccc4nc5ccc(N6CCOCC6)cc5n34)cn2)C[C@H](C)N1C [Example 17, 1-(6-((3S,5R)-3,4,5-trimethylpiperazin-1-yl)pyridin-3-yl)-8-morpholinobenzo[4,5]imidazo[1,2-a]pyridine] has an IC50 [1] of 3250 nM, an IC50 [2] of 2620 nM and an inhibition at 1 µM (ATM enzyme (human)) of 37%.
For CN(C)C1CCN(c2ccc(-c3ccc4nc5cccc(N6CCOCC6)c5n4c3)cn2)CC1 [Example 42, N,N-dimethyl-1-(5-(9-morpholinobenzo[4,5]imidazo[1,2-a]pyridin-2-yl)pyridin-2-yl)piperidin-4-amine], the IC50 [1] was 2100 nM, the IC50 [2] was 2400 nM and the inhibition at 1 µM (ATM enzyme (human)) was 88%.
In the case of CN1CCN(c2cccc3nc4ccc(-c5ccc(N6CCC(N(C)C)CC6)c(C(F)(F)F)c5)cn4c23)CC1 [Example 43, N,N-dimethyl-1-(2-(trifluoromethyl)-4-(9-(4-methylpiperazin-1-yl)benzo[4,5]imidazo[1,2-a]pyridin-2-yl)-phenyl)piperidin-4-amine], the IC50 [1] is reported as 1050 nM, the IC50 [2] is reported as 542 nM and the inhibition at 1 µM (ATM enzyme (human)) is reported as 99%.
In the case of CN(C)CCCOc1ccc(-c2ccc3nc4cccc(N5CCN(C)CC5)c4n3c2)cc1C(F)(F)F [Example 44, N,N-dimethyl-3-(2-(trifluoromethyl)-4-(9-(4-methylpiperazin-1-yl)benzo[4,5]imidazo[1,2-a]pyridin-2-yl)phenoxy)propan-1-amine], the IC50 [1] is reported as > 500 nM, the IC50 [2] is reported as > 100000 nM and the inhibition at 1 µM (ATM enzyme (human)) is reported as 97%.
C[C@@H]1CN(c2cccc3nc4ccc(-c5ccc(N6CCC(N(C)C)CC6)cc5)cn4c23)C[C@H](C)N1C [Example 45, N,N-dimethyl-1-(4-(9-((3S,5R)-3,4,5-trimethylpiperazin-1-yl)benzo[4,5]imidazo[1,2-a]pyridin-2-yl)phenyl)piperidin-4-amine] was tested, and the IC50 [1] was > 500 nM, the IC50 [2] was 322 nM and the inhibition at 1 µM (ATM enzyme (human)) was 100%.
Compound C[C@@H]1CN(c2cccc3nc4ccc(-c5ccc(N6CCC(N(C)C)CC6)c(F)c5)cn4c23)C[C@H](C)N1C [Example 46, N,N-dimethyl-1-(2-fluoro-4-(9-((3S,5R)-3,4,5-trimethylpiperazin-1-yl)benzo[4,5]imidazo[1,2-a]pyridin-2-yl)phenyl)piperidin-4-amine] has an IC50 [1] of 152 nM, an IC50 [2] of 55 nM and an inhibition at 1 µM (ATM enzyme (human)) of 100%.
For C[C@@H]1CN(c2cccc3nc4ccc(-c5ccc(N6CCC(N(C)C)CC6)c(Cl)c5)cn4c23)C[C@H](C)N1C [Example 47, N,N-dimethyl-1-(2-chloro-4-(9-((3S,5R)-3,4,5-trimethylpiperazin-1-yl)benzo[4,5]imidazo[1,2-a]pyridin-2-yl)phenyl)piperidin-4-amine], the IC50 [1] was 166 nM, the IC50 [2] was 60.5 nM and the inhibition at 1 µM (ATM enzyme (human)) was 100%.
C[C@@H]1CN(c2cccc3nc4ccc(-c5ccc(N6CCC(N(C)C)CC6)c(C(F)(F)F)c5)cn4c23)C[C@H](C)N1C [Example 48, N,N-dimethyl-1-(2-(trifluoromethyl)-4-(9-((3S,5R)-3,4,5-trimethylpiperazin-1-yl)benzo[4,5]imidazo[1,2-a]pyridin-2-yl)phenyl)piperidin-4-amine] was tested, and the IC50 [1] was > 1000 nM, the IC50 [2] was > 1000 nM and the inhibition at 1 µM (ATM enzyme (human)) was 100%.
With CN(C)C1CCN(c2ccc(-c3ccc4nc5cccc(N6CCC(N(C)C)CC6)c5n4c3)cc2)CC1 [Example 56, N,N-dimethyl-1-(4-(9-(4-(dimethylamino)piperidin-1-yl)benzo[4,5]imidazo[1,2-a]pyridin-2-yl)phenyl)piperidin-4-amine] the IC50 [1] was 40.9 nM, the “growth of SW620 cell (in words)” value ([1]; MTT assay) was “inhibited the growth” and the IC50 [2] was 41.4 nM. The “growth of MDA-MB-468 cell (in words)” value ([2]; MTT assay) was “inhibited the growth” and the inhibition at 1 µM (ATM enzyme (human)) was 81%.

— patent publication US11547703B2, “Substituted fused heteroaromatic tricyclic compounds as kinase inhibitors and the use thereof” (IMPACT THERAPEUTICS (SHANGHAI), INC, priority 2017, dated 2023)
